Legend:
[1] = Clearance from the kidneys after administration to mice; type: in vivo, BALB/c mice; conditions: administered to balb/s mice; Cu complex
Source text: For example, the functional group of R^5 may be hydrophobic or may be hydrophilic. Having a hydrophobic entity will encourage clearance of a compound of the present invention that is complexed with a metal ion or metal ion radionuclide through the liver, while a hydrophilic entity will predominantly clear through the kidney.

[2] = 64Cu radiolabelling at room temperature; kinetically inert complexes; cited from earlier work

Structure (SMILES)	clearance / retention in the kidneys [1]	stability of 64Cu complex to excess EDTA challenge [2]
NC12CNCCNCC(N)(CNCCNC1)CNCCNC2.[Cu+2] [Cu-diamsar]	rapidly cleared from the kidneys	–
C1CNCC2CNCCNCC(CN1)CNCCNC2.[Cu+2] [Cu-sar]	retained for a relatively longer period of time in the kidneys	–
Nc1ccc(CNC23CNCCNCC(N)(CNCCNC2)CNCCNC3)cc1 [Sarar, 1-N-(4-aminobenzyl)-3,6,10,13,16,19-hexaazabicyclo[6.6.6]eicosane-1,8-diamine]	–	stable to excess EDTA challenge
